Measured values from US20250380697A1, “ISOXAZOLINE DERIVATIVE COMPOUND AND INSECTICIDAL COMPOSITION COMPRISING SAME” (KYUNG NONG CORPORATION, priority 2022, published 2025).

Key:
Assay type in all cases: in vivo
Thrips tabaci Lindeman = experiment: Pesticidal activity against Thrips tabaci Lindeman, spray method; conditions: adults, counted 24 and 48 hours, time not given, read-out: mortality rate, Thrips tabaci Lindeman
Source text: A water-soaked filter paper (9.0 cm in diameter) was placed in an insect breeding dish (Lab Guide®) with a diameter of 9.0 cm and a height of 4.0 cm, and then parafilm (width 4.0 cm×height 4.0 cm) was placed thereon. Before being treated with a pesticide composition, 10 adult Thrips tabaci Lindeman were inoculated per petri dish using a No. 4 brush. In this case, Thrips tabaci Lindeman adults used were those collected in a place near the Andong National University (Korea) and bred for multiple generations. Then, the pesticide composition where the compound of Synthesis Example 2 was diluted (the solvent=distilled water+acetone 50,000 mg/L+Triton X-100 100 mg/L) was loaded into a 100 mL small sprayer, and sprayed 10-12 times at a distance of 30 cm and a height of 50 cm, and one cotyledons of soybean, which is a host plant, were added one at a time. Then, the Thrips tabaci Lindeman adults were stored under the conditions of 16 hours of light and 8 hours of darkness, 25±1° C., and relative humidity of 50-60%, and the number of live Thrips tabaci Lindeman adults was counted 24, and 48 hours after the inoculation. Thereafter, the larvae mortality rate was calculated in the same manner as in Test Example 1 above.

Phaedon brassicae = experiment: Pesticidal activity against Phaedon brassicae, leaf-dipping method; conditions: counted 24, 48, 72 hours, time not given, read-out: mortality rate, Phaedon brassicae
Description: Cabbage (Daiya) leaves were cut into pieces with a diameter of 5.8 cm, dipped in the pesticide composition where the compound of Synthesis Example 2 was diluted (the solvent=distilled water+acetone 50,000 mg/L+Triton X-100 100 mg/L) for 30 seconds, and sufficiently shade-dried. Then, the shade-dried cabbage leaves were is placed in a petri dish (8.8 cm in diameter) covered with filter paper and repeatedly inoculated 3-5 times with the larvae of Phaedon brassicae, 10 larvae per inoculation. In particular, the Phaedon brassicae larvae used were those which were bred in the Andong National University (Korea) for multiple generations.
After the inoculation, the Phaedon brassicae larvae were stored under the conditions of 16 hours of light and 8 hours of dark, 25±1° C. and 50-60% relative humidity, and the number of live Phaedon brassicae larvae was counted 24, 48, and 72 hours after the inoculation. Thereafter, the larvae mortality rate was calculated in the same manner as in Test Example 1 above.

[1] = system: Frankliniella occidentalis; experiment: Pesticidal activity against Frankliniella occidentalis, spray method; conditions: 48 h, read-out: mortality rate, Frankliniella occidentalis
Source text: A water-soaked filter paper (9.0 cm in diameter) was placed in an insect breeding dish (Lab Guide®) with a diameter of 9.0 cm and a height of 4.0 cm, and then parafilm (width 4.0 cm×height 4.0 cm) was placed thereon. Before treating with a pesticide composition, 10 adult Frankliniella occidentalis were inoculated per petri dish using a No. 4 brush. In this case, Frankliniella occidentalis adults used were those purchased from the Bio Utilization Institute (Andong, Korea). Then, each of the pesticide compositions prepared in Examples (a diluted solution in which each of the compounds of Synthesis Examples (concentration: 100 ppm) was diluted; the solvent=distilled water+acetone 50,000 mg/L+Triton X-100 100 mg/L) was loaded into a 100 mL small sprayer, and sprayed 10-12 times at a distance of 30 cm and a height of 50 cm, and one cotyledons of soybean, which is a host plant, were added one at a time. Then, the Frankliniella occidentalis adults were stored under the conditions of 16 hours of light and 8 hours of darkness, 25±1° C., and relative humidity of 50-60%, and the number of live Frankliniella occidentalis adults was counted 48 hours after the inoculation. Thereafter, the larvae mortality rate was calculated in the same manner as in Test Example 1 above.

CCN1OC[C@@H](NC(=O)c2ccc(C3=NO[C@@](c4cc(Cl)c(F)c(Cl)c4)(C(F)(F)F)C3)cc2C)C1=O [Comparative Example 3, isocycloseram]
mortality at 1 ppm (Thrips tabaci Lindeman; 1 ppm): 66% | mortality at 3 ppm (Thrips tabaci Lindeman; 3 ppm): 76% | mortality at 10 ppm (Thrips tabaci Lindeman; 10 ppm): 90% | mortality at 1 ppm (Phaedon brassicae; 1 ppm): 100% | mortality at 3 ppm (Phaedon brassicae; 3 ppm): 100% | mortality at 10 ppm (Phaedon brassicae; 10 ppm): 100% | mortality at 5 ppm [1]: 100% | mortality at 10 ppm [1]: 100%
